From paper PMC8032624, “Prediction of dose-dependent in vivo acetylcholinesterase inhibition by profenofos in rats and humans using physiologically based kinetic (PBK) modeling-facilitated reverse dosimetry” (Archives of Toxicology, 2021)

How the values were obtained:
in vitro = in vitro ADME; conditions: conversion of profenofos to BCP; for Km: pH 7.4
Method: Incubations of profenofos with rat and human liver microsomes, liver cytosol and plasma were performed to quantify in vitro rates of BCP formation. Conditions were optimized to be linear for metabolite formation with regard to incubation time and microsomal, cytosolic and plasma protein concentration (data not shown). The final incubations were carried out in 100 mM Tris HCl (pH 7.4, 37 °C) containing (final concentrations) 5 mM MgCl2, 2 mM CaCl2 [to stimulate PON1 activity (Carr et al. [2015])], 2 mM NADPH (cofactor to also include CYP-mediated metabolism), enzyme preparation (final concentration 2 mg/ml for human liver microsomes and cytosol and 4.4 mg/ml for human plasma; 0.5 mg/ml for rat microsomes and cytosol and 1.65 mg/ml for rat plasma) and profenofos (at final concentrations ranging from 1 to 100 μM, added from 100 times concentrated stock solutions in DMSO). Control incubations were performed in the absence of microsomes, cytosol or plasma. After 2 min pre-incubation, the reaction was initiated by adding the substrate and mixtures were incubated for 2 min in a 37 °C water bath. The total volume of the incubation mixtures was 200 μl. The reaction was terminated by the addition of 50 μl ice cold ACN and samples were kept on ice. The mixture was centrifuged at 14,000g for 20 min at 4 °C and the supernatant was analyzed using UPLC-UV.
All samples from incubations were analyzed using a Waters Acquity UPLC H class system that consisted of a quaternary solvent manager, a sample manager, and a photodiode array (PDA) detector, equipped with a Water Acquity UPLC® BEH C18 column (1.7 μm, 2.1 × 50 mm) and Waters Xbridge UPLC® BEH C18 pre-column (2.5 μM, 2.1 × 5 mm). The temperature of the column was kept at 40 °C and the auto sampler at 10 °C during the UPLC analysis. The mobile phases used for the analysis consisted of (A) 0.1% TFA in nanopure water and (B) 100% ACN. A gradient elution at a flow rate of 0.6 ml/min was applied for the analysis with the initial condition of 100% A:0% B (v/v), changing in a linear way to 0% A:100% B from 0 to 6 min, which was maintained for 30 s, and then changed back to the initial conditions in 30 s, which were maintained for 1 min. The injection volume for each sample was 3.5 μl.
Under these conditions, the retention times of profenofos and BCP were 4.76 and 3.37 min, respectively. The amounts of profenofos and BCP were quantified by integrating the peak areas at 237 nm using calibration curves that were prepared using commercially available standards.
Kinetic parameters including the apparent maximum velocity (Vmax) and the apparent Michaelis–Menten constant (Km) for BCP formation were obtained by fitting the data for the substrate concentration-dependent rate of conversion (expressed in nmol/min/mg protein) using GraphPad Prism 5, version 5.04 (San Diego, California, USA) to the standard Michaelis–Menten equation: V=Vmax∗S/(Km+S) in which the S represents the concentration of substrate, expressed in μM, V and Vmax the velocity and the maximum velocity of the reaction, respectively, expressed in nmol/min/mg protein, and Km the apparent Michaelis–Menten constant, expressed in μM. The kinetic parameter values for conversion of profenofos to BCP in the liver microsomes, liver cytosol and plasma were determined. To determine the catalytic efficiency, Vmax was divided by the Km.

[1] = Control incubations without microsomes, cytosol or plasma (spontaneous hydrolysis); format: physicochemical; conditions: 100 mM Tris HCl pH 7.4, 37 °C, 2 min, no enzyme preparation
Method: Incubations of profenofos with rat and human liver microsomes, liver cytosol and plasma were performed to quantify in vitro rates of BCP formation. Conditions were optimized to be linear for metabolite formation with regard to incubation time and microsomal, cytosolic and plasma protein concentration (data not shown). […] The mixture was centrifuged at 14,000g for 20 min at 4 °C and the supernatant was analyzed using UPLC-UV.
The conversion of profenofos to BCP was measured in incubations with both rat and human liver microsomes, cytosol and plasma. […] In control incubations, small amounts (max 0.04% of the amount of profenofos added) of BCP were detected, indicating some spontaneous hydrolysis of profenofos in the aqueous environment, which has also been observed in previous studies (Aly and Badawy [1982]). The BCP formation data for microsomes, cytosol and plasma were, therefore, corrected for BCP levels detected in control incubations.

AChE = assay: PBK modeling-facilitated reverse dosimetry and BMD modelling of predicted AChE inhibition in humans; set-up: species or system human
Text: In the present study, it was assumed that in vivo dose-dependent AChE inhibition (in blood) depends on the maximum concentration (Cmax) of profenofos reached in the blood. For adequate PBK modeling-facilitated reverse dosimetry, the active (unbound) concentration of a test chemical in the in vitro test system should be linked to the in vivo freely available chemical at the target site. This is important since it is assumed that it is the fraction unbound that causes the effect (AChE inhibition). In the in vitro incubations, a very low concentration of BSA (0.1 mg/mL) is present. Heilmair et al. ([2008]) reported that with such low BSA concentrations, the free concentration of chlorpyrifos oxon is not affected. Furthermore, Rosenfeld and Sultatos ([2006]) found no evidence of binding of paraoxon by BSA even at a higher concentration (1 mg/ml) during incubations. Based on these observations, no significant effect on the free fraction of profenofos in the in vitro AChE inhibition studies is expected, which corroborated with estimations on profenofos binding in the in vitro incubations with help of the online simcyp tool (https://www.certara.com/software/pbpk-modeling-and-simulation/).
By calculating with the PBK model, the external dose required to reach (as unbound Cmax) the concentrations applied in the in vitro test, each in vitro concentration was translated into an in vivo dose. […]

rat = conditions: oral administration, ref JMPR [2007]; cited from earlier work
RBC AChE = conditions: adult rats, single exposure; ref EPA [2016]; cited from earlier work
brain AChE = conditions: rats, single exposure; ref JMPR [2007]; cited from earlier work

## CCCSP(=O)(OCC)Oc1ccc(Br)cc1Cl (centres unmarked) [profenofos, O-(4-bromo-2-chlorophenyl) O-ethyl S-propyl phosphorothioate]
In vitro; rat liver cytosol
  Vmax: 0.95 nmol/min/mg cytosolic protein
  Km: 0.34 µM
In vitro; rat liver microsomes
  Vmax: 8.9 nmol/min/mg microsomal protein
  Km: 8.1 µM
In vitro; rat plasma
  Vmax: 0.68 nmol/min/mg plasma protein
  Km: 3.6 µM
[1]
  BCP detected in control incubations (spontaneous hydrolysis): ≤ 0.04 % of the amount of profenofos added
AChE
  Interspecies difference in predicted BMDL10 (rat vs human): 45 fold
rat
  LD50: 358 to 1178 mg/kg
RBC AChE
  BMDL10 for RBC AChE inhibition: 1.99 mg/kg bw
Brain AChE
  NOAEL for inhibition of brain AChE: 100 mg/kg bw
